Assay results reported in US20250122191A1, “COMPOUNDS AS BCL-2 INHIBITORS” (Fochon Biosciences, Ltd, priority 2021, published 2025).
Read-outs that look alike come from different tables or passages of the source.

How the values were obtained:
Type in all cases: cell-based
Toledo cells = assay: Cell proliferation assay (MTS), Toledo cells; conditions: 72 h
Procedure, shortened: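 Toledo cells (RPMI-1640, 10% FBS) seeded at 30000 cells/well, rested 4 h, then exposed 72 h at 37 °C, 5% CO2 to compound at nine final concentrations, 1.5–10000 nM. Viability by MTS (2 h), absorbance at 490 nm. IC50 from the concentration-response.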

RS4;11-BCL-2 G101V cells = assay: Cell proliferation assay (MTS), RS4;11-BCL-2 G101V engineered cells; conditions: 120 h, read-out: RS4, 11 BCL2-G101V IC50
Procedure, shortened: (§1)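 Proliferation IC50 in RS4;11 lines engineered with BCL-2 mutations, measured by MTS at 490 nm after 72 h (D103E, D103Y) or 120 h (G101V, F104L) compound treatment at 37 °C.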

RS4;11-BCL-2 F104L cells = assay: Cell proliferation assay (MTS), RS4;11-BCL-2 F104L engineered cells; conditions: 120 h, read-out: RS4, 11 BCL2-F104L IC50
Source text: MTS testing kit was purchased from Promega (Madison, WI, USA). The RPMI-1640, Fetal bovine serum and Penicillin-Streptomycin were purchased from BI (Biological Industries, Beit Haemek, Israel). Puromycin was purchased from Beyotime (shanghai, China). Dimethyl sulfoxide (DMSO) was purchased from Sigma (St. Louis., MO, USA). RS4;11-BCL-2 G101V (Cobioer Lot. #: CBD2021063013P4), RS4;11-BCL-2 D103E (Cobioer Lot. #: CBD2021063013P4), RS4;11-BCL-2 D103Y (Cobioer Lot. #: CBD2022012101P4) and RS4;11-BCL-2 F104L (Cobioer Lot. #: CBD2021063014P4) cells were cultured in RPMI1640 supplemented with 1 ug/mL puromycin, 100 U/mL Penicillin-Streptomycin and 10% FBS.
To investigate whether a compound is able to inhibit the activity of BCL-2 mutation in cells, a mechanism-based assay using engineered cell lines stably overexpressing BCL-2 mutation (RS4;11-BCL-2 G101V, RS4;11-BCL-2 D103E, RS4;11-BCL-2 D103Y, and RS4;11-BCL-2 F104L) was developed. In this assay, the inhibition of BCL-2 mutation was reflected by the inhibition of cell proliferation of engineered RS4;11 cells. Cells were plated into 96-well plates at optimized cell density (RS4;11-BCL-2 G101V: 5000 cells/well; RS4;11-BCL-2 D103E: 7500 cells/well; RS4;11-BCL-2 D103Y: 7500 cells/well; RS4;11-BCL-2 F104L: 5000 cells/well). Plates were incubated at 37° C., with 5% CO2 for 4 h (RS4;11-BCL-2 G101V, RS4;11-BCL-2 F104L) and 24 h (RS4;11-BCL-2 D103E, RS4;11-BCL-2 D103Y), respectively. Compounds were serially diluted and added to the plates with the final concentrations of 10000, 3333.3, 1111.1, 370.4, 123.5, 41.2, 13.7, 4.6 and 1.5 nM. Plates were incubated at 37° C., with 5% CO2 for 120 h (RS4; 11-BCL-2 G101V, RS4; 11-BCL-2 F104L) and 72 h (RS4;11-BCL-2 D103E, RS4;11-BCL-2 D103Y), respectively. 20 μl MTS was added into each well and the plates were incubated at 37° C., with 5% CO2 exactly for 2 h. The absorbance was measured by a microplate reader at 490 nm. IC50 values were calculated using GraphPad Prism 8.0 software.

RS4;11-BCL-2 D103E cells = assay: Cell proliferation assay (MTS), RS4;11-BCL-2 D103E engineered cells; conditions: Homo sapiens, 72 h, read-out: RS4, 11 BCL2-D103E IC50
Procedure, shortened: as §1

IC50 (RS4;11-BCL-2 G101V cells; Homo sapiens) [nM]	IC50 (RS4;11-BCL-2 F104L cells; Homo sapiens) [nM]	IC50 (RS4;11-BCL-2 D103E cells) [nM]	IC50 (RS4;11-BCL-2 G101V cells) [nM]	IC50 (RS4;11-BCL-2 F104L cells) [nM]	SMILES	IC50 (Toledo cells; Homo sapiens) [nM]	IC50 (Toledo cells) [nM]
1	1				CCOc1nc2[nH]cc(F)c2cc1Oc1cc(N2CCC3(CC2)CC(N2CCN(Cc4ccc(OC)c5oc(C)cc45)C[C@H]2c2ccccc2C(C)C)C3)ccc1C(=O)NS(=O)(=O)c1cnc(NC[C@H]2CC[C@](C)(O)CC2)c([N+](=O)[O-])c1 [Example 14, 2-((6-ethoxy-3-fluoro-1H-pyrrolo[2,3-b]pyridin-5-yl)oxy)-N-((6-((((1r,4r)-4-hydroxy-4-methylcyclohexyl)methyl)amino)-5-nitropyridin-3-yl)sulfonyl)-4-(2-((R)-2-(2-isopropylphenyl)-4-((7-methoxy-2-methylbenzofuran-4-yl)methyl)piperazin-1-yl)-7-azaspiro[3.5]nonan-7-yl)benzamide]	1	
1	1	1			COc1cc(CN2CCN(C3CC4(CCN(c5ccc(C(=O)NS(=O)(=O)c6cnc(NC[C@H]7CC[C@](C)(O)CC7)c([N+](=O)[O-])c6)c(Oc6cc7c(F)c[nH]c7nc6OC)c5)CC4)C3)[C@H](c3ccccc3C(C)C)C2)cc(F)n1 [Example 53, 2-((3-fluoro-6-methoxy-1H-pyrrolo[2,3-b]pyridin-5-yl)oxy)-4-(2-((R)-4-((2-fluoro-6-methoxypyridin-4-yl)methyl)-2-(2-isopropylphenyl)piperazin-1-yl)-7-azaspiro[3.5]nonan-7-yl)-N-((6-((((1r,4r)-4-hydroxy-4-methylcyclohexyl)methyl)amino)-5-nitropyridin-3-yl)sulfonyl)benzamide]		
1	1				COc1nc2[nH]cc(F)c2cc1Oc1cc(N2CCC3(CC2)CC(N2CCOC[C@H]2c2ccccc2C(C)C)C3)ccc1C(=O)NS(=O)(=O)c1cnc(NC[C@H]2CC[C@](C)(O)CC2)c([N+](=O)[O-])c1 [Example 87, 2-((3-fluoro-6-methoxy-1H-pyrrolo[2,3-b]pyridin-5-yl)oxy)-N-((6-((((1r,4r)-4-hydroxy-4-methylcyclohexyl)methyl)amino)-5-nitropyridin-3-yl)sulfonyl)-4-(2-((R)-3-(2-isopropylphenyl)morpholino)-7-azaspiro[3.5]nonan-7-yl)benzamide]	1	
			1	1	CC(C)c1ccccc1[C@@H]1CN(Cc2ccc(Cl)cc2)CCN1C1CC2(CCN(c3ccc(C(=O)NS(=O)(=O)c4cnc(NCC5CCC(C)(O)CC5)c([N+](=O)[O-])c4)c(Oc4cnc5[nH]cc(F)c5c4)c3)CC2)C1 (stereo partly drawn) [Example 229, 4-(2-((R)-4-(4-chlorobenzyl)-2-(2-isopropylphenyl)piperazin-1-yl)-7-azaspiro[3.5]nonan-7-yl)-2-((3-fluoro-1H-pyrrolo[2,3-b]pyridin-5-yl)oxy)-N-((6-((((1r,4r)-4-hydroxy-4-methylcyclohexyl)methyl)amino)-5-nitropyridin-3-yl)sulfonyl)benzamide]		1
1	1				CC(C)c1ccccc1[C@@H]1CN(Cc2ccc(F)cc2)CCN1C1CC2(CCN(c3ccc(C(=O)NS(=O)(=O)c4cnc(NC[C@H]5CC[C@](C)(O)CC5)c([N+](=O)[O-])c4)c(Oc4cnc5[nH]cc(F)c5c4)c3)CC2)C1 [Example 232, 2-((3-fluoro-1H-pyrrolo[2,3-b]pyridin-5-yl)oxy)-4-(2-((R)-4-(4-fluorobenzyl)-2-(2-isopropylphenyl)piperazin-1-yl)-7-azaspiro[3.5]nonan-7-yl)-N-((6-((((1r,4r)-4-hydroxy-4-methylcyclohexyl)methyl)amino)-5-nitropyridin-3-yl)sulfonyl)benzamide]	1	
1	1				COc1nc2[nH]cc(F)c2cc1Oc1cc(N2CCC3(CC2)CC(N2CCN(Cc4ccc5c(c4)OCO5)C[C@H]2c2ccccc2C(C)C)C3)ccc1C(=O)NS(=O)(=O)c1cnc(NC[C@H]2CC[C@](C)(O)CC2)c([N+](=O)[O-])c1 [Example 353, 4-(2-((R)-4-(benzo[d][1,3]dioxol-5-ylmethyl)-2-(2-isopropylphenyl)piperazin-1-yl)-7-azaspiro [3.5]nonan-7-yl)-2-((3-fluoro-6-methoxy-1H-pyrrolo[2,3-b]pyridin-5-yl)oxy)-N-((6-((((1r,4r)-4-hydroxy-4-methylcyclohexyl)methyl)amino)-5-nitropyridin-3-yl)sulfonyl)benzamide]	1	
1	1				CC(C)c1ccccc1[C@@H]1CN(Cc2ccc3c(c2)OCO3)CCN1C1CC2(CCN(c3ccc(C(=O)NS(=O)(=O)c4cnc(NC[C@H]5CC[C@](C)(O)CC5)c([N+](=O)[O-])c4)c(Oc4cnc5[nH]cc(F)c5c4)c3)CC2)C1 [Example 354, 4-(2-((R)-4-(benzo[d][1,3]dioxol-5-ylmethyl)-2-(2-isopropylphenyl)piperazin-1-yl)-7-azaspiro[3.5]nonan-7-yl)-2-((3-fluoro-1H-pyrrolo[2,3-b]pyridin-5-yl)oxy)-N-((6-((((1r,4r)-4-hydroxy-4-methylcyclohexyl)methyl)amino)-5-nitropyridin-3-yl)sulfonyl)benzamide]	1	
1	1				COc1nc2[nH]cc(F)c2cc1Oc1cc(N2CCC3(CC2)CC(N2CCN(Cc4ccnc(C)c4)C[C@H]2c2ccccc2C(C)C)C3)ccc1C(=O)NS(=O)(=O)c1cnc(NC[C@H]2CC[C@](C)(O)CC2)c([N+](=O)[O-])c1 [Example 355, 2-((3-fluoro-6-methoxy-1H-pyrrolo[2,3-b]pyridin-5-yl)oxy)-N-((6-((((1r,4r)-4-hydroxy-4-methylcyclohexyl)methyl)amino)-5-nitropyridin-3-yl)sulfonyl)-4-(2-((R)-2-(2-isopropylphenyl)-4-((2-methylpyridin-4-yl)methyl)piperazin-1-yl)-7-azaspiro[3.5]nonan-7-yl)benzamide]	1	
1	2				Cc1cc(CN2CCN(C3CC4(CCN(c5ccc(C(=O)NS(=O)(=O)c6cnc(NC[C@H]7CC[C@](C)(O)CC7)c([N+](=O)[O-])c6)c(Oc6cnc7[nH]cc(F)c7c6)c5)CC4)C3)[C@H](c3ccccc3C(C)C)C2)ccn1 [Example 356, 2-((3-fluoro-1H-pyrrolo[2,3-b]pyridin-5-yl)oxy)-N-((6-((((1r,4r)-4-hydroxy-4-methylcyclohexyl)methyl)amino)-5-nitropyridin-3-yl)sulfonyl)-4-(2-((R)-2-(2-isopropylphenyl)-4-((2-methylpyridin-4-yl)methyl)piperazin-1-yl)-7-azaspiro[3.5]nonan-7-yl)benzamide]	1	
1	2				CC(C)c1ccccc1[C@@H]1CN(Cc2ccnc(Cl)c2)CCN1C1CC2(CCN(c3ccc(C(=O)NS(=O)(=O)c4cnc(NC[C@H]5CC[C@](C)(O)CC5)c([N+](=O)[O-])c4)c(Oc4cnc5[nH]cc(F)c5c4)c3)CC2)C1 [Example 358, 4-(2-((R)-4-((2-chloropyridin-4-yl)methyl)-2-(2-isopropylphenyl)piperazin-1-yl)-7-azaspiro[3.5]nonan-7-yl)-2-((3-fluoro-1H-pyrrolo[2,3-b]pyridin-5-yl)oxy)-N-((6-((((1r,4r)-4-hydroxy-4-methylcyclohexyl)methyl)amino)-5-nitropyridin-3-yl)sulfonyl)benzamide]	1	
